Data set [1] in a line: Cytotoxicity against rat PC12 cells measured after 24 hrs by WST8/PMS assay. The data set is classed as cell-based, PC-12. On the technique in general: Formazan colour is commonly taken as a measure of viable cells.
Data set [2] is described as follows: Antioxidant activity assessed as DPPH radical scavenging activity measured after 30 mins. The data set is classed as functional.
For data set [3], the target named is Amyloid-beta precursor protein (Homo sapiens) (UniProt P05067). As to the kind of experiment: Inhibition of self-induced amyloid beta 42 (unknown origin) aggregation at 1 uM incubated for 20 hrs by thioflavin-T fluorescence assay relative to control.
Data set [4] in a line: Aqueous solubility of the compound at 1 mg measured after 12 hrs by shake flask method. The data set is classed as physicochemical. The conditions noted are these: water.
The target in data set [5] is Amyloid-beta precursor protein (Homo sapiens) (UniProt P05067). As to the kind of experiment: Inhibition of self-induced amyloid beta 42 (unknown origin) fibril formation at 10 uM incubated for 6 hrs by thioflavin-T fluorescence assay relative to control.
For data set [6] the target is unchanged. As to the kind of experiment: Inhibition of self-induced amyloid beta 42 (unknown origin) aggregation at 10 uM incubated for 20 hrs by thioflavin-T fluorescence assay relative to control.
Data set [7] shares this target. As to the kind of experiment: Disaggregation of self-induced amyloid beta 42 (unknown origin) preformed fibrils assessed as length of nanorod-like fragment by TEM analysis.
Data set [8] shares this target. As to the kind of experiment: Disaggregation of self-induced amyloid beta 42 (unknown origin) preformed fibrils assessed as appearance of nanorod-like fragment by […] analysis.

Values after ≈ are worked out from the molar mass of the structure shown. Active and inactive are the calls of the source. The calls are words filed in the database; no cut-off is given here. Bounds are passed on as bounds.

Amyloid-beta precursor protein (Homo sapiens), sequence (P05067 whole entry): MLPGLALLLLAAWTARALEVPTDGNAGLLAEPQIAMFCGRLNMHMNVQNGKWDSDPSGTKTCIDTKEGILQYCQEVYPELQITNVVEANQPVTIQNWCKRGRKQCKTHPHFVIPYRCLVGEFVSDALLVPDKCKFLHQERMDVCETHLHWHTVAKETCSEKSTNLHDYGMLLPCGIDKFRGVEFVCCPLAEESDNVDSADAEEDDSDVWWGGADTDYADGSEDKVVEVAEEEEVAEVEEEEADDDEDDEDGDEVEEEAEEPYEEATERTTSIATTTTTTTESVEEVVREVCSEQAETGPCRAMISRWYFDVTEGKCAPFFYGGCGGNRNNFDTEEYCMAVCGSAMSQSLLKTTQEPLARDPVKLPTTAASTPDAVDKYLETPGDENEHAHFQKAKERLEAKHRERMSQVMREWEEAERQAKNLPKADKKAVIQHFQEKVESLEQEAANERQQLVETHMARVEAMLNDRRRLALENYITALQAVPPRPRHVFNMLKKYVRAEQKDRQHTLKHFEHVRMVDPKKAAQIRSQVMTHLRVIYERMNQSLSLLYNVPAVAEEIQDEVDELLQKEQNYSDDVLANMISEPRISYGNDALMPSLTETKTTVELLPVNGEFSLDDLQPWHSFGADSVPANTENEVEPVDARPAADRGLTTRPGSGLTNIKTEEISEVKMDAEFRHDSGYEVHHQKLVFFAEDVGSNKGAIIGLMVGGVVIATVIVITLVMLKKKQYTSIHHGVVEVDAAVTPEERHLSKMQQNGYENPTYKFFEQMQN

A word on the CC50: it is the concentration at which the toxic effect on the cells reaches its halfway point. Higher therefore signals lower toxicity to the cells. Broadly, the IC50 is the concentration that inhibits the measured activity by half. What is called inhibition is the relative decrease from the control value, in per cent. High values mean a response far below the control, low ones a response near the control. Broadly, the solubility (thermodynamic) is solubility found after equilibrating the solid with the medium. As to `O=C(/C=C/c1cc(O)ccc1O)CC(=O)/C=C/c1cc(O)ccc1O`, the CC50 at 24 h in data set [1] was determined as 24 µM. Moreover, in data set [2], the IC50 is 57 µM. The inhibition is 99% in data set [3] and 95 to 100% in data set [5]. The compound also displayed a thermodynamic solubility at 12 h in data set [4] of 5 µM (≈ 1.7 µg/mL).
In the case of `O=C(/C=C/c1ccc(O)cc1)/C=C/c1cccc(O)c1O`, in data set [1], it took 12 µM to reach half-maximal cytotoxicity (CC50 at 24 h). Moreover, the IC50 in data set [2] turned out to be 40 µM. This compound came in with an inhibition in data set [3] of 96%. The compound also showed a thermodynamic solubility at 12 h in data set [4] of 120 µM (≈ 33.9 µg/mL).
The matching figures for `O=C(/C=C/c1ccccc1O)CC(=O)c1ccc(O)c(O)c1`: more than 90 µM, 16 µM, 90% and 77 µM (≈ 23 µg/mL).
The compound `O=C(/C=C/c1ccc(O)c(O)c1)CC(=O)/C=C/c1cccc(O)c1O` gave a CC50 at 24 h in data set [1] of 16 µM. Further, the inhibition in data set [6] is 98%; in data set [5], 95 to 100%. In addition, the IC50 in data set [2] was determined as 19 µM. In data set [4], this compound had a thermodynamic solubility at 12 h of 3.8 µM (≈ 1.29 µg/mL).
`O=C(/C=C/c1cc(O)ccc1O)CC(=O)c1cccc(O)c1O` came in with a CC50 at 24 h in data set [1] of 63 µM. The IC50 in data set [2] is 28 µM. The compound further registered an inhibition in data set [3] of 100%. For the same compound, the thermodynamic solubility at 12 h in data set [4] is 32 µM (≈ 10.1 µg/mL).
The matching figures for `O=C(/C=C/c1ccc(O)c(O)c1)/C=C/c1ccccc1O`: 34 µM, 62 µM, 100% and 111 µM (≈ 31.3 µg/mL).
The matching figures for `O=C(/C=C/c1ccccc1O)/C=C/c1cccc(O)c1O`: 54 µM, 99 µM, 98% and 151 µM (≈ 42.6 µg/mL).
`O=C(/C=C/c1ccc(O)c(O)c1)/C=C/c1cc(O)ccc1O` had a CC50 at 24 h in data set [1] of 39 µM. Further, the concentration for half-maximal inhibition (IC50) in data set [2] was 25 µM. The compound also registered an inhibition in data set [3] of 100%. The compound further returned a thermodynamic solubility at 12 h in data set [4] of 123 µM (≈ 36.7 µg/mL).
Compound `COc1cc(/C=C/C(=O)CC(=O)/C=C/c2ccc(O)c(OC)c2)ccc1O` [CURCUMIN] returned a half-maximal cytotoxic concentration (CC50) at 24 h in data set [1] of 42 µM. Besides, in data set [2], the IC50 is 45 µM. The same compound yielded a thermodynamic solubility at 12 h in data set [4] of 0.19 µM (≈ 0.07 µg/mL).
As to `O=C(/C=C/c1ccc(O)c(O)c1)c1cc(O)ccc1O`, the midpoint of cytotoxicity in data set [1], the CC50 at 24 h, lay at 80 µM. The IC50 in data set [2] turned out to be 39 µM. For the same compound, the inhibition in data set [3] was found to be 85%. In addition, in data set [4], the solubility (thermodynamic) at 12 h worked out at 16 µM (≈ 4.36 µg/mL).
`O=C(/C=C/c1ccc(O)cc1)/C=C/c1ccc(O)c(O)c1`: the CC50 at 24 h in data set [1] came to 12 µM. Besides, the half-inhibitory concentration (IC50) in data set [2] was determined as 24 µM. The same compound came in with an inhibition in data set [3] of 75%. The compound further displayed a thermodynamic solubility at 12 h in data set [4] of 19 µM (≈ 5.36 µg/mL).
The matching figures for `O=C(/C=C/c1cccc(O)c1)/C=C/c1ccc(O)c(O)c1`: more than 100 µM, 71 µM, 100% and 60 µM (≈ 16.9 µg/mL).
Take `O=C(/C=C/c1ccccc1O)CC(=O)/C=C/c1cc(O)ccc1O`: the CC50 at 24 h in data set [1] stood at 38 µM. Further, in data set [2], the half-inhibitory concentration (IC50) was found to be 48 µM. Also, the inhibition in data set [3] is 80%; in data set [5], 95 to 100%. In data set [4], the solubility (thermodynamic) at 12 h was determined as 4.4 µM (≈ 1.43 µg/mL).
The matching figures for `O=C(/C=C/c1cccc(O)c1O)CC(=O)/C=C/c1cccc(O)c1O`: 39 µM, 30 µM, 93%, 95 to 100% and 5.3 µM (≈ 1.8 µg/mL).
The matching figures for `O=C(/C=C/c1ccc(O)cc1)CC(=O)/C=C/c1cc(O)ccc1O`: 21 µM, 41 µM, 53%, 95 to 100% and 0.57 µM (≈ 0.185 µg/mL).
The matching figures for `O=C(/C=C/c1cc(O)ccc1O)CC(=O)/C=C/c1cccc(O)c1O`: 53 µM, 27 µM, 100%, 95 to 100% and 100 µM (≈ 34 µg/mL).
Consider `O=C(/C=C/c1cccc(O)c1)CC(=O)c1ccc(O)c(O)c1`, for which the CC50 at 24 h in data set [1] was more than 100 µM. For the same compound, the IC50 in data set [2] is 10 µM. Also, in data set [3], the inhibition worked out at 85%. This compound displayed a thermodynamic solubility at 12 h in data set [4] of 25 µM (≈ 7.46 µg/mL).
`O=C(/C=C/c1cccc(O)c1)/C=C/c1cccc(O)c1O` yielded a CC50 at 24 h in data set [1] of 46 µM. Also, in data set [2], the half-inhibitory concentration (IC50) came out at 48 µM. Also, the inhibition in data set [3] was 90%. In data set [4], this compound showed a solubility (thermodynamic) at 12 h of 184 µM (≈ 51.9 µg/mL).
In data set [1], `O=C(/C=C/c1ccc(O)c(O)c1)CC(=O)/C=C/c1cc(O)ccc1O` returned a CC50 at 24 h of 51 µM. Besides, in data set [2], the IC50 was 60 µM. Also, the results for the inhibition in data set [3] and in data set [5] were 57% and 95 to 100%, respectively. The solubility (thermodynamic) at 12 h in data set [4] stood at 54 µM (≈ 18.4 µg/mL).
Turning to `O=C(/C=C/c1cc(O)ccc1O)CC(=O)c1ccc(O)c(O)c1`, in data set [1], the CC50 at 24 h is more than 100 µM. The 50% inhibitory concentration (IC50) in data set [2] worked out at 82 µM. Further, in data set [3], the inhibition was determined as 98%. This compound also yielded a solubility (thermodynamic) at 12 h in data set [4] of 47 µM (≈ 14.8 µg/mL).
Consider `O=C(/C=C(O)/C=C/c1ccccc1O)/C=C/c1ccc(O)c(O)c1`, for which, in data set [3], the inhibition was 62%. In data set [4], this compound had a thermodynamic solubility at 12 h of 31 µM (≈ 10.1 µg/mL).
Turning to `O=C(/C=C/c1cc(O)ccc1O)/C=C/c1cccc(O)c1O`, in data set [1], the CC50 at 24 h is 59 µM. In data set [2], the concentration for half-maximal inhibition (IC50) worked out at 13 µM. For the same compound, in data set [7], the Activity lay within 50 to 500 nm. Moreover, the inhibition in data set [3] came to 100%. Also, in data set [8], the result was Active. In data set [4], the solubility (thermodynamic) at 12 h worked out at 271 µM (≈ 80.8 µg/mL).
Regarding `O=C(/C=C/c1cccc(O)c1)CC(=O)/C=C/c1cccc(O)c1O`, the CC50 at 24 h in data set [1] was determined as 38 µM. Besides, the inhibition in data set [6] was 100%; in data set [5], 95 to 100%. The IC50 in data set [2] stood at 29 µM. In addition, in data set [4], the solubility (thermodynamic) at 12 h was found to be 8.2 µM (≈ 2.66 µg/mL).
Take `O=C(/C=C/c1ccccc1O)CC(=O)/C=C/c1cccc(O)c1O`: the cytotoxic concentration (CC50) at 24 h in data set [1] was 34 µM. Further, in data set [2], the concentration for half-maximal inhibition (IC50) came out at 23 µM. For the same compound, the inhibition in data set [3] was 92%; in data set [5], 95 to 100%. Further, in data set [4], the solubility (thermodynamic) at 12 h was determined as 11 µM (≈ 3.57 µg/mL).
In data set [1], `O=C(/C=C/c1cccc(O)c1O)c1cc(O)ccc1O` displayed a CC50 at 24 h of 89 µM. Further, the IC50 in data set [2] was 48 µM. Moreover, the inhibition in data set [3] was found to be 98%. Also, in data set [4], the solubility (thermodynamic) at 12 h was found to be 33 µM (≈ 8.98 µg/mL).
Turning to `O=C(/C=C/c1cccc(O)c1)CC(=O)/C=C/c1cc(O)ccc1O`, the midpoint of cytotoxicity in data set [1], the CC50 at 24 h, lay at 15 µM. In addition, the half-maximal inhibitory concentration (IC50) in data set [2] worked out at 88 µM. The inhibition was 56% in data set [3] and 95 to 100% in data set [5]. The solubility (thermodynamic) at 12 h in data set [4] is 5.8 µM (≈ 1.88 µg/mL).
In data set [1], `O=C(/C=C/c1ccc(O)cc1)CC(=O)/C=C/c1cccc(O)c1O` displayed a 50% cytotoxic concentration (CC50) at 24 h of 8.5 µM. The inhibition in data set [6] is 100%; in data set [5], 95 to 100%. In addition, the IC50 in data set [2] was found to be 27 µM. For the same compound, the thermodynamic solubility at 12 h in data set [4] came to 4.8 µM (≈ 1.56 µg/mL).

(Values after ChEMBL document CHEMBL4387774, “Design, synthesis, and evaluation of a water soluble C5-monoketone type curcumin analogue as a potent amyloid β aggregation inhibitor” (Bioorg Med Chem Lett, 2019).)
